This test has as its system T1, EstD04.
T1 construct: C-terminal His6 tag (kept), pET-21a, E. coli BL21(DE3); catalytic triad Ser160/Glu253/His283; gene PCR-amplified with primers from P. nitroreducens homologue CEG18-11055 (homologue, not this protein)
The test can be described thus: p-nitrophenol release at […] nm, Lineweaver-Burk. The format is biochemical, Pseudomonas sp. D01. The conditions noted are these: pH 8.0, 40 °C, 50 mM potassium phosphate; 0.25-2 mM substrate.

With `CCCC(=O)Oc1ccc([N+](=O)[O-])cc1` [p-NPC4, p-nitrophenyl butyrate], the Km (as a rule, the concentration of substrate that gives half-maximal velocity) is 488 ± 1 µM.

These data come from publication PMC10385968, “Enzymatic Characterization of a Novel HSL Family IV Esterase EstD04 from Pseudomonas sp. D01 in Mealworm Gut Microbiota” (Molecules, 2023).
